Assay results as given in paper PMC5760531, “Action Potential Recording and Pro-arrhythmia Risk Analysis in Human Ventricular Trabeculae” (Frontiers in Physiology, 2018).

What was measured:
[1] = human free (unbound) effective therapeutic plasma concentration used to calculate multiples; cited from earlier work
[2] = test system: human ventricular trabeculae; assay: Action potential recording and pro-arrhythmic score analysis in human ventricular trabeculae (hVT);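 also: sharp microelectrode action potential recordings at 37°C in Tyrode-perfused trabeculae, 4 cumulative concentrations each applied 31 min, values averaged over last 30 APs, vehicle 0.1% DMSO as control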
[3] = 1Hz, 1.6-FOLD free ETPC (0.006µM)
[4] = 1Hz, 17-FOLD free ETPC (0.006µM)
[5] = 1Hz, 167-FOLD free ETPC (0.006µM)
[6] = 1Hz, 1667-FOLD free ETPC (0.006µM)
[7] = 2Hz, 1.6-FOLD free ETPC (0.006µM)
[8] = 2Hz, 17-FOLD free ETPC (0.006µM)
[9] = 2Hz, 167-FOLD free ETPC (0.006µM)
[10] = 2Hz, 1667-FOLD free ETPC (0.006µM)

COc1cc2nc(N(C)CCCNC(=O)C3CCCO3)nc(N)c2cc1OC (stereo not shown) [ALFUZOSIN, Alfuzosin]
Free ETPC [1]: 0.006 µM
AMAX [2, 3]: 110
AMAX percentage change compared to vehicle control [2, 3]: 2%
APD30 [2, 3]: 163
APD30 percentage change compared to vehicle control [2, 3]: 4%
APD50 [2, 3]: 214
APD50 percentage change compared to vehicle control [2, 3]: 4%
APD90 [2, 3]: 287
APD90 percentage change compared to vehicle control [2, 3]: 3%
Alternans [2, 3]: 0.33
Alternans percentage change compared to vehicle control [2, 3]: -14%
Beat Escape [2, 3]: 0
Beat Escape percentage change compared to vehicle control [2, 3]: 0%
EADs [2, 3]: 0
EADs percentage change compared to vehicle control [2, 3]: 0%
ERP [2, 3]: 0.42
ERP percentage change compared to vehicle control [2, 3]: 0%
Max Dispersion [2, 3]: 2.40
Max Dispersion percentage change compared to vehicle control [2, 3]: 28%
RMP [2, 3]: -88
RMP percentage change compared to vehicle control [2, 3]: 3%
Refractoriness Escape [2, 3]: 0
Refractoriness Escape percentage change compared to vehicle control [2, 3]: 0%
STV [2, 3]: 0.30
STV percentage change compared to vehicle control [2, 3]: 9%
Triangulation [2, 3]: 123
Triangulation percentage change compared to vehicle control [2, 3]: -1%
AMAX [2, 4]: 110
AMAX percentage change compared to vehicle control [2, 4]: 1%
APD30 [2, 4]: 159
APD30 percentage change compared to vehicle control [2, 4]: 2%
APD50 [2, 4]: 209
APD50 percentage change compared to vehicle control [2, 4]: 2%
APD90 [2, 4]: 284
APD90 percentage change compared to vehicle control [2, 4]: 1%
Alternans [2, 4]: 0.34
Alternans percentage change compared to vehicle control [2, 4]: -13%
Beat Escape [2, 4]: 0
Beat Escape percentage change compared to vehicle control [2, 4]: 0%
EADs [2, 4]: 0
EADs percentage change compared to vehicle control [2, 4]: 0%
ERP [2, 4]: 0.44
ERP percentage change compared to vehicle control [2, 4]: 4%
Max Dispersion [2, 4]: 2.18
Max Dispersion percentage change compared to vehicle control [2, 4]: 16%
RMP [2, 4]: -88
RMP percentage change compared to vehicle control [2, 4]: 3%
Refractoriness Escape [2, 4]: 0
Refractoriness Escape percentage change compared to vehicle control [2, 4]: 0%
STV [2, 4]: 0.26
STV percentage change compared to vehicle control [2, 4]: -6%
Triangulation [2, 4]: 126
Triangulation percentage change compared to vehicle control [2, 4]: 1%
AMAX [2, 5]: 110
AMAX percentage change compared to vehicle control [2, 5]: 2%
APD30 [2, 5]: 161
APD30 percentage change compared to vehicle control [2, 5]: 3%
APD50 [2, 5]: 213
APD50 percentage change compared to vehicle control [2, 5]: 4%
APD90 [2, 5]: 291
APD90 percentage change compared to vehicle control [2, 5]: 4%
Alternans [2, 5]: 0.45
Alternans percentage change compared to vehicle control [2, 5]: 16%
Beat Escape [2, 5]: 0
Beat Escape percentage change compared to vehicle control [2, 5]: 0%
EADs [2, 5]: 0
EADs percentage change compared to vehicle control [2, 5]: 0%
ERP [2, 5]: 0.44
ERP percentage change compared to vehicle control [2, 5]: 4%
Max Dispersion [2, 5]: 2.43
Max Dispersion percentage change compared to vehicle control [2, 5]: 29%
RMP [2, 5]: -89
RMP percentage change compared to vehicle control [2, 5]: 4%
Refractoriness Escape [2, 5]: 0
Refractoriness Escape percentage change compared to vehicle control [2, 5]: 0%
STV [2, 5]: 0.29
STV percentage change compared to vehicle control [2, 5]: 7%
Triangulation [2, 5]: 130
Triangulation percentage change compared to vehicle control [2, 5]: 5%
AMAX [2, 6]: 109
AMAX percentage change compared to vehicle control [2, 6]: 1%
APD30 [2, 6]: 162
APD30 percentage change compared to vehicle control [2, 6]: 4%
APD50 [2, 6]: 222
APD50 percentage change compared to vehicle control [2, 6]: 9%
APD90 [2, 6]: 319
APD90 percentage change compared to vehicle control [2, 6]: 14%
Alternans [2, 6]: 0.72
Alternans percentage change compared to vehicle control [2, 6]: 86%
Beat Escape [2, 6]: 0
Beat Escape percentage change compared to vehicle control [2, 6]: 0%
EADs [2, 6]: 0
EADs percentage change compared to vehicle control [2, 6]: 0%
ERP [2, 6]: 0.47
ERP percentage change compared to vehicle control [2, 6]: 12%
Max Dispersion [2, 6]: 3.05
Max Dispersion percentage change compared to vehicle control [2, 6]: 63%
RMP [2, 6]: -88
RMP percentage change compared to vehicle control [2, 6]: 4%
Refractoriness Escape [2, 6]: 0
Refractoriness Escape percentage change compared to vehicle control [2, 6]: 0%
STV [2, 6]: 0.46
STV percentage change compared to vehicle control [2, 6]: 75%
Triangulation [2, 6]: 158
Triangulation percentage change compared to vehicle control [2, 6]: 28%
AMAX [2, 7]: 109
AMAX percentage change compared to vehicle control [2, 7]: 1%
APD30 [2, 7]: 120
APD30 percentage change compared to vehicle control [2, 7]: 2%
APD50 [2, 7]: 163
APD50 percentage change compared to vehicle control [2, 7]: 3%
APD90 [2, 7]: 234
APD90 percentage change compared to vehicle control [2, 7]: 2%
Alternans [2, 7]: 0.92
Alternans percentage change compared to vehicle control [2, 7]: 6%
Beat Escape [2, 7]: 0
Beat Escape percentage change compared to vehicle control [2, 7]: 0%
EADs [2, 7]: 0
EADs percentage change compared to vehicle control [2, 7]: 0%
ERP [2, 7]: 0.45
ERP percentage change compared to vehicle control [2, 7]: 1%
Max Dispersion [2, 7]: 3.95
Max Dispersion percentage change compared to vehicle control [2, 7]: 12%
RMP [2, 7]: -87
RMP percentage change compared to vehicle control [2, 7]: 2%
Refractoriness Escape [2, 7]: 0
Refractoriness Escape percentage change compared to vehicle control [2, 7]: 0%
STV [2, 7]: 0.64
Triangulation [2, 7]: 115
Triangulation percentage change compared to vehicle control [2, 7]: 1%
AMAX [2, 8]: 110
AMAX percentage change compared to vehicle control [2, 8]: 2%
APD30 [2, 8]: 116
APD30 percentage change compared to vehicle control [2, 8]: -1%
APD50 [2, 8]: 160
APD50 percentage change compared to vehicle control [2, 8]: 1%
APD90 [2, 8]: 233
APD90 percentage change compared to vehicle control [2, 8]: 1%
Alternans [2, 8]: 0.99
Alternans percentage change compared to vehicle control [2, 8]: 14%
Beat Escape [2, 8]: 0
Beat Escape percentage change compared to vehicle control [2, 8]: 0%
EADs [2, 8]: 0
EADs percentage change compared to vehicle control [2, 8]: 0%
ERP [2, 8]: 0.47
ERP percentage change compared to vehicle control [2, 8]: 4%
Max Dispersion [2, 8]: 3.93
Max Dispersion percentage change compared to vehicle control [2, 8]: 11%
RMP [2, 8]: -88
RMP percentage change compared to vehicle control [2, 8]: 4%
Refractoriness Escape [2, 8]: 0
Refractoriness Escape percentage change compared to vehicle control [2, 8]: 0%
STV [2, 8]: 0.66
Triangulation [2, 8]: 118
Triangulation percentage change compared to vehicle control [2, 8]: 3%
AMAX [2, 9]: 110
AMAX percentage change compared to vehicle control [2, 9]: 2%
APD30 [2, 9]: 115
APD30 percentage change compared to vehicle control [2, 9]: -1%
APD50 [2, 9]: 161
APD50 percentage change compared to vehicle control [2, 9]: 2%
APD90 [2, 9]: 238
APD90 percentage change compared to vehicle control [2, 9]: 3%
Alternans [2, 9]: 0.83
Alternans percentage change compared to vehicle control [2, 9]: -4%
Beat Escape [2, 9]: 0
Beat Escape percentage change compared to vehicle control [2, 9]: 0%
EADs [2, 9]: 0
EADs percentage change compared to vehicle control [2, 9]: 0%
ERP [2, 9]: 0.48
ERP percentage change compared to vehicle control [2, 9]: 7%
Max Dispersion [2, 9]: 2.88
Max Dispersion percentage change compared to vehicle control [2, 9]: -18%
RMP [2, 9]: -88
RMP percentage change compared to vehicle control [2, 9]: 3%
Refractoriness Escape [2, 9]: 0
Refractoriness Escape percentage change compared to vehicle control [2, 9]: 0%
STV [2, 9]: 0.63
Triangulation [2, 9]: 123
Triangulation percentage change compared to vehicle control [2, 9]: 8%
AMAX [2, 10]: 108
AMAX percentage change compared to vehicle control [2, 10]: 0%
APD30 [2, 10]: 115
APD30 percentage change compared to vehicle control [2, 10]: -1%
APD50 [2, 10]: 165
APD50 percentage change compared to vehicle control [2, 10]: 5%
APD90 [2, 10]: 258
APD90 percentage change compared to vehicle control [2, 10]: 12%
Alternans [2, 10]: 0.78
Alternans percentage change compared to vehicle control [2, 10]: -10%
Beat Escape [2, 10]: 0
Beat Escape percentage change compared to vehicle control [2, 10]: 0%
EADs [2, 10]: 0
EADs percentage change compared to vehicle control [2, 10]: 0%
ERP [2, 10]: 0.50
ERP percentage change compared to vehicle control [2, 10]: 11%
Max Dispersion [2, 10]: 2.72
Max Dispersion percentage change compared to vehicle control [2, 10]: -23%
RMP [2, 10]: -87
RMP percentage change compared to vehicle control [2, 10]: 2%
Refractoriness Escape [2, 10]: 0
Refractoriness Escape percentage change compared to vehicle control [2, 10]: 0%
STV [2, 10]: 0.55
Triangulation [2, 10]: 142
Triangulation percentage change compared to vehicle control [2, 10]: 26%
